From patent US12053465B2, “KCC2 expression enhancing compounds and uses thereof” (Whitehead Institute for Biomedical Research, priority 2017, dated 2024)
Where a SMILES comes first, the peptide text is derived from it. [ ]: non-standard residue; d: D form. The star is where a group is joined. Sta = CC(C)C[C@H](N)[C@@H](O)CC(=O)O; Isovaleryl = CC(C)CC(=O)*

tested on: KCC2 expression (KCC2-2A-luciferase reporter); test: KCC2-2A-luciferase reporter compound screening with wild type KCC2 reporter neurons; format: cell-based; conditions: WT human KCC2 reporter neurons; LINCS 0.5 μM, IRSF/SMART and ICCB 10 μM, one week; Luc/CTG normalized to in-plate DMSO; hit = B score >3
Excerpt: In addition, CRISPR/Cas9 genome editing technology was utilized to insert a 2A-luciferase reporter gene directly before the stop codon of the endogenous KCC2 locus in human ES cells, thus creating wild type (WT) cells isogenic to the MECP2-null RTT human KCC2 reporter neurons. KCC2 expression reporter human neurons were differentiated from the gene-targeted ES cells and utilized as the substrate for unbiased compound screening (FIG. 6A; see also FIG. 1A).
Gene-targeted KCC2 reporter cells were used in a HTS pipeline to screen for small molecule compounds that enhance KCC2 gene expression (FIG. 1B; note that reporter neurons were adapted to 384 well format for some screens, and the same workflow was used both for WT KCC2 reporter neurons and RTT KCC2 reporter neurons). Six replicate screens were performed in WT KCC2 reporter neurons using the LINCS and SMART libraries as well as the ICCB known bioactive library (FIG. 6B).
(§1) The cells were dissociated with Accutase, resuspended in 10 ml neuronal differentiation medium to count cells. the final cell seeding density was 20 k-40 k cells per well for 96-well plates, and ˜10 k cells per well for 384-well plates. Matrigel was added to the cell suspension at a dilution ratio of 1:300 to promote cell adhesion after plating. AraC were added to the cell suspension at the concentration of 0.5 μM to inhibit astroglial cell division. The cells were dispensed into 96-well or 384-well plates (Coming) using a BioTek EL406 plate dispenser. […] The neurons were incubated with the compounds at 37° C./5% CO2 for a week before the luciferase assay.
For some screens, on the day of the luciferase assay, the cells were washed with PBS three times using a BioTek EL406 plate washer. Cell lysis buffer (Promega, E1941, 1:5 diluted with water) was added at a volume of 100 μl per well for 96-well plates and 30 μl per well for 384-well plates, and incubated at room temperature for 10 minutes to lyse the cells. A fraction of the cell lysate (30 ul for 96-well, 5 ul for 384-well) was transferred to a new white, opaque plate and Cell Titer-Glo (CTG, Promega, G7572, diluted 2:5 in water) was added and incubated for 20 minutes at room temperature. CTG measures cellular ATP levels as a surrogate for cell viability. The reporter luciferase signal was assayed in the original source plate using Bright-Glo reagent per the manufacturer's protocol (Promega, E1501, 10 ul for 96-well plates, 3 ul for 384-well plates). Assay readouts were performed on a Tecan M1000 Infinite plate reader. For data analysis, the luciferase signal was normalized to the CTG signal to control for number of live cells per well. The Luc/CTG ratio data were then normalized to the in-plate DMSO control to calculate the signal induction fold change. Screening data were processed with CellHTS2 software package to calculate B-score (94)

| SMILES | B Score |
| --- | --- |
| O=c1cc(-c2ccccc2)oc2c(O)c(O)ccc12 [7,8-Dihydroxyflavone] | 4.01 |
| COCc1nc2c([nH]1)c(=O)n(C)c(=O)n2CC(C)C [8-methoxymethyl-IBMX, 8-(Methoxymethyl)-1-methyl-3-(2-methylpropyl)-7H-purine-2,6-dione] | 4.8 |
| COc1cc2c(Oc3ccc(NC(=O)C4(C(=O)Nc5ccc(F)cc5)CC4)cc3F)ccnc2cc1OCCCN1CCOCC1 [Foretinib, N1′-[3-fluoro-4-[[6-methoxy-7-(3-morpholinopropoxy)-4-quinolyl]oxy]phenyl]-N1-(4-fluorophenyl)cyclopropane-1,1-dicarboxamide] | 4.05 |
| Cc1nc2n(c(=O)c1CCN1CCC(c3noc4cc(F)ccc34)CC1)CCCC2O (stereo not shown) [Paliperidone, 9-Hydroxyrisperidone] | 11.03 |
| CN(C)c1ccc(C=C2C(=O)Nc3ccccc32)cc1 [SU-4312, 3-(4-Dimethylaminobenzylidenyl)-2-indolinone] | 3.55 |

tested on: KCC2 expression (KCC2-2A-luciferase reporter); test: KCC2-2A-luciferase reporter compound screening with RTT KCC2 reporter neurons; format: cell-based, human; conditions: MECP2-null RTT human KCC2 reporter neurons; LINCS, SMART, ICCB libraries; Luc/CTG normalized to in-plate DMSO; hit = B score >3
Experimental: The RTT KCC2-2A-luciferase reporter neurons were treated with the test compounds from the LINCS kinase inhibitor library and IRSF SMART compound library and incubated before being lysed. The cell lysate was divided into two parts to measure luciferase signal (KCC2 translation) and Cell-Titer Glow (CTG, amount of ATP). The luciferase signal was normalized to CTG for each well, and the Luc/CTG ratio was normalized to the in-plate DMSO negative control to calculate fold change ratio.
Additional screens for reporter activation in the MECP2-null RTT human KCC2 reporter neurons (isogenic to the WT reporter cells used above) were performed with the LINCS and SMART libraries as well as the ICCB known bioactive library and identified hits as compounds with B score >3.
The cells were dissociated with Accutase and resuspended in 10 ml neuronal differentiation medium to count cells. The cells were then diluted to the final density of 200,000 to 500,000 cells/ml. Matrigel was added to the cell suspension at a dilution ratio of 1:300 to promote cell adhesion after plating. AraC was added to cell suspension at the concentration of 2 μM to inhibit cell division. The cells were plated into 96-well plates with an automated cell seeding machine using the following protocol: The neuron flask was washed with PBS. The neurons were digested off the plate with Accutase for 30 minutes at 37° C. Next, the dissociated cells were collected and spun down at 750 rpm for 5 minutes. The cell pellet was dissociated by gentle trituration with P1000 pipet and the cells were resuspended with 10 ml of neuronal medium. Then, the cells were filtered through a 40 μm cell strainer (Falcon) to get rid of clumps. The resulting single-cell suspension was counted using a Countess automated cell counter (Invitrogen Countess Automated Cell Counter, Catalog no. C10227). The neurons were resuspended with neuronal medium to 10× of the destination density (100,000 cells to 400,000 cells per ml). The cells were plated with a multichannel pipette, or proceeded to the machine-plating protocol described below:
The day after cell seeding, small molecule compounds from the IRSF (International Rett Syndrome Foundation) library were prepared at a concentration of 1 mM and dispensed into a blank V-bottomed test plates at 2 μl per well. Compound solvent DMSO was included in every plate as control. Using a liquid handling robot, about 80 μl of culture medium were discarded. Neuronal medium in the volume of 200 μl was added to the V-bottom test plate that contained 2 μl of 1 mM compounds, and mixed with compounds by pipetting up-and-down 3 times. The medium that contained the 10 μM compounds was then applied to the neuronal cell culture and incubated for 2 weeks before cell lysis and luciferase assay were performed.
as §1
The cells used for luciferase assay were KCC2 reporter neurons differentiated for 4 weeks, and treated with drug in 96-well format for 2 weeks. Cell density was between 20 k-40 k cells per well.
On the day of the luciferase assay, the cells were washed with PBS for two times, and 100 μl of cell lysis buffer was applied to the washed cells. The cell plates were transferred to a rocker to shake for 10 minutes in order to fully lyse the cells.

| SMILES | B Score |
| --- | --- |
| O=c1cc(-c2ccccc2)oc2c(O)c(O)ccc12 [7,8-Dihydroxyflavone] | 4.01 |
| COCc1nc2c([nH]1)c(=O)n(C)c(=O)n2CC(C)C [8-methoxymethyl-IBMX, 8-(Methoxymethyl)-1-methyl-3-(2-methylpropyl)-7H-purine-2,6-dione] | 4.8 |
| NC[C@H](CC(=O)O)c1ccc(Cl)cc1 [(R)-Baclofen] | 6.65 |
| COc1ccc(CNC(=O)Nc2ncc([N+](=O)[O-])s2)cc1 [AR-AO14418, N-(4-Methoxybenzyl)-N'-(5-nitro-1,3-thiazol-2-yl)urea] | 8.69 |
| O=C(O)c1cccc(-c2noc(-c3ccccc3F)n2)c1 [Ataluren, 3-[5-(2-Fluorophenyl)-1,2,4-oxadiazol-3-yl]benzoic acid] | 7.43 |
| CCOc1ccn(-c2ccc(F)cc2)c(=O)c1C(=O)Nc1ccc(Oc2ccnc(N)c2Cl)c(F)c1 [BMS 777607, N-(4-(2-amino-3-chloropyridin-4-yloxy)-3-fluorophenyl)-4-ethoxy-1-(4-fluorophenyl)-2-oxo-1,2-dihydropyridine-3-carboxamide] | 11.97 |
| O=c1c(-c2ccc(O)cc2)coc2cc(O)ccc12 [Daidzein, 7-hydroxy-3-(4-hydroxyphenyl)-4H-chromen-4-one] | 4.64 |
| COc1cc2c(Oc3ccc(NC(=O)C4(C(=O)Nc5ccc(F)cc5)CC4)cc3F)ccnc2cc1OCCCN1CCOCC1 [Foretinib, N1′-[3-fluoro-4-[[6-methoxy-7-(3-morpholinopropoxy)-4-quinolyl]oxy]phenyl]-N1-(4-fluorophenyl)cyclopropane-1,1-dicarboxamide] | 4.05 |
| O=c1c(-c2ccc(O)cc2)coc2cc(O)cc(O)c12 [Genistein, 4',5,7-Trihydroxyisoflavone] | 5.11 |
| O=c1c(O)c(-c2ccc(O)cc2)oc2cc(O)cc(O)c12 [Kaempferol, 3,5,7-Trihydroxy-2-(4-hydroxyphenyl)-4H-chromen-4-one] | 3.92 |
| O=c1cc(-c2ccc(O)c(O)c2)oc2cc(O)cc(O)c12 [Luteolin, 2-(3,4-Dihydroxyphenyl)-5,7-dihydroxy-4-chromenone] | 11.34 |
| O=C(Nc1ccc(OC(F)(F)F)cc1)c1sccc1NCc1ccnc2ccccc12 [OSI-930, 3-[(4-quinolinylmethyl)amino]-N-[4-(trifluoromethoxy)phenyl]-2-thiophenecarboxamide] | 5.55 |
| CC(C)CC(=O)N[C@H](C(=O)N[C@H](C(=O)N[C@@H](CC(C)C)[C@@H](O)CC(=O)N[C@@H](C)C(=O)N[C@@H](CC(C)C)[C@@H](O)CC(=O)O)C(C)C)C(C)C [Pepstatin, Isovalery-Val-Val-Sta-Ala-Sta] (Isovaleryl-VV[Sta]A[Sta]-OH) | 8.64 |
| O=c1c(O)c(-c2ccc(O)c(O)c2)oc2cc(O)cc(O)c12 [Quercetin-2H2O, 2-(3,4-dihydroxyphenyl)-3,5,7-trihydroxy-4H-chromen-4-one] | 7.76 |
| O=C1CCc2c(ccc3ccccc23)O1 [Splitomycin, 1,2-Dihydro-3H-naphtho[2,1-b]pyran-3-one] | 9.79 |
| CC(C)[C@@H]1NC(=O)[C@H](C)OC(=O)[C@@H](C(C)C)NC(=O)[C@@H](C(C)C)OC(=O)[C@H](C(C)C)NC(=O)[C@H](C)OC(=O)[C@@H](C(C)C)NC(=O)[C@@H](C(C)C)OC(=O)[C@H](C(C)C)NC(=O)[C@H](C)OC(=O)[C@@H](C(C)C)NC(=O)[C@@H](C(C)C)OC1=O [Valinomycin, Cyclo-(L-Val-D-HyIva-D-Val-L-Lac-)3] | 4.49 |
| CCC(C)C(CC)C(N)=O (stereo not shown) [Valnoctamide, 2-ethyl-3-methyl-pentanamide] | 14.99 |

tested on: KCC2 expression; test: Western blot of KCC2 in cultured human RTT neurons; format: cell-based; conditions: RTT neurons; additional application to Resveratrol
Experimental: Protein samples were collected from cultured brain slices or cultured neurons in 12-well format with RIPA lysis buffer (in mM: 150 NaCl, 25 Tris-HCl, 1 EDTA, 1% NP-40, 1% sodium deoxycholate, 0.1% SDS, with protein kinase inhibitor and protease inhibitor, pH adjusted to 7.6). A sonication step was applied to homogenize tissue and extract protein, followed by a 10 minute centrifugation at 4° C. […] The PVDF membrane was blocked for 30 minutes with 5% milk in TBS+0.1% Tween 20 (TBST), and incubated overnight at 4° C. with primary antibodies diluted in TBST-milk at the following concentrations: KCC2 (1:2000, Millipore), NKCC1 (1:1000, Iowa Hybridoma bank), α-Tubulin (1:4000, Abcam), GAPDH (1:3000, Abcam), Actin (1:2000, Sigma Aldrich #A2066). The membrane was rinsed with TBST three times to wash off excess antibodies, and then incubated in secondary HRP antibodies in TBST-milk at 1:5000 concentration.
The PVDF membrane was then stripped using the Re-blot plus strong solution (Millipore), and re-immunoblotted for NKCC1 (˜150 kDa) to acquire KCC2/NKCC1 ratio. The area and intensity of protein signal was determined using ImageJ. The relative KCC2 and NKCC1 expression were calculated by normalizing protein signal to GAPDH or Tubulin loading control.

| SMILES | effect on Resveratrol-induced KCC2 expression enhancement |
| --- | --- |
| NC(=O)C1CCCc2c1[nH]c1ccc(Cl)cc21 (stereo not shown) [EX-527] | blocked KCC2 expression enhancement |

same assay, conditions: RTT neurons; co-application with Piperine

| SMILES | effect on Piperine-induced KCC2 expression |
| --- | --- |
| O=C(Nc1ccc(S(=O)(=O)C(F)(F)F)cc1)C1=CCN(c2ncccc2C(F)(F)F)CC1 [A784168] | eliminated the KCC2-inducing effect of Piperine |

same assay, conditions: cultured human RTT neurons; Western blot

| SMILES | KCC2 expression |
| --- | --- |
| COc1ccc(C(=O)Nc2sc3c(c2C(N)=O)CCC3)cc1OC [FLT3 Inhibitor-1, 2-(3,4-dimethoxybenzamido)-5,6-dihydro-4H-cyclopenta[b]thiophene-3-carboxamide] | significant enhancement of KCC2 expression |
